The values that follow are results of earlier work, collected in patent US20220249345A1, “PRODUCT FOR TREATING KERATINOUS FIBERS, CONTAINING SILANES OF SPECIFIC FORMULAE” (Henkel AG & Co. KGaA, priority 2019, published 2022).

Structures are written as SMILES. Where two headings read alike, the source gives them in different places.

For the compound `Nc1cc(S(=O)(=O)[O-])cc2cc(S(=O)(=O)[O-])c(N=Nc3ccccc3)c(O)c12.[Na+].[Na+]` [Acid Red 33, diantrium salt of 5-amino-4-hydroxy-3-(phenylazo)-naphthalene-2,7-disulphonate], under “25° C.”, the solubility in water result was “about 2.5 g/L”.

`O=S(=O)([O-])c1ccc(N=Nc2c(O)ccc3ccccc23)cc1.[Na+]` [Acid Orange 7, sodium salt of 4-[(2-hydroxy-1-naphthyl)azo]benzene sulphonate]: for the setting “25° C.”, the solubility in water result is recorded as “more than 7 g/L”.

With `O=C([O-])C1=NN(c2ccc(S(=O)(=O)[O-])cc2)C(=O)C1N=Nc1ccc(S(=O)(=O)[O-])cc1.[Na+].[Na+].[Na+]` (stereo not drawn) [Acid Yellow 23, trisodium salt of 4,5-dihydro-5-oxo-1-(4-sulfophenyl)-4-((4-sulfophenyl)azo)-1H-pyrazole-3-carboxylic acid], the “solubility in water” value (at about 25° C.) is reported as “highly soluble in water”.
